Experiment [1] has as its system LNCaP cells. Description: LNCaP cell growth (crystal violet). It is filed as cell-based, human. Particulars: inferred from toxicity at 0.001 nM. As to the method:
LNCaP cells were seeded at concentrations of 2×10^3 and 1×10^3 cells/well respectively in 96 well plates. […] After incubation, the cells were fixed with 1% glutaraldehyde solution, and stained for 5 minutes with 0.5% crystal violet. The dye was successively eluted with 100 μl of buffer solution and the absorbance was read on a Titertek Multiskan microplate reader using a wavelength of 492 nm Absorbance. Cell growth was expressed as a percentage relative to control wells in the absence of the compound (set at 100%).

Experiment [2] relates to chick chorioallantoic membrane (CAM) vasculature. The settings on record: PCL paste (3 mg).
Experiment [3] concerns restenosis / intimal hyperplasia. Description: Rat carotid artery balloon injury model of restenosis, perivascular treatment. Particulars: 10% camptothecin-loaded EVA film, 14 days, two animals. Type of experiment: in vivo. As to the method:
WISTAR rats weighing 250 to 300 g were anesthetized by the intramuscular injection of Innovar (0.33 ml/kg). Once sedated they were then placed under Halothane anesthesia After general anesthesia was established, fur over the neck region was shaved, the skin clamped and swabbed with betadine. A vertical incision was made over the left carotid artery and the external carotid artery exposed. Two ligatures were placed around the external carotid artery and a transverse arteriotomy was made. […] The endothelium was denuded by passing the inflated balloon up and down the carotid artery three times. The catheter was then removed and the ligature tied off on the left external carotid artery. […] The wound was then closed.

Experiment [4] concerns synoviocytes. Description: Proliferation assay (MTT). It is filed as cell-based. Particulars: 24-hour exposure. On the procedure: On day one, 5-10×10^4 synoviocytes were plated per well (96-well plate). Column #1 was kept free of cells (blank). On day 2, the plate was flicked to discard the medium and 200 μl of medium containing various concentrations of drug was added. […] There was no drug added to columns #1 and #2 (blank and untreated control, respectively). The medium containing the drug was discarded and 200 μl of fresh complete medium was added. The cells were then left to grow for an additional 3 to 4 days. On day five, 20 μl of dimethylthiazol diphenyltetrazolium bromide salt (MTT) (5 mg/ml PBS) was added and allowed to incubate for 4 hours at 37° C. The medium was decanted and 200 μl of DMSO was added.
The data were expressed as the % of survival which was obtained by dividing the number of cells remaining after treatment by the number of cells in the untreated control column #2 (the number of cells was obtained from a standard done prior to the assay).

Experiment [5] concerns collagenase (MMP-1) mRNA. The experiment is described as follows: IL-1 induced collagenase mRNA expression in chondrocytes (Northern blot). Type of experiment: cell-based, calf. Particulars: pre-incubation 6 hours, IL-1 20 ng/ml 18 hours. On the procedure:
Total RNA was isolated, and the MMP-1 mRNA levels were determined by Northern blot analysis. The blots were subsequently stripped and reprobed with ^32P-radiolabeled rat GAPDH cDNA, which was used as a housekeeping gene. The results shown are representative of four independent experiments. Quantitation of collagenase-1 and stromelysin-expression mRNA levels. The MMP-1 and MMP-3 expression levels were normalized with GAPDH.
Primary chondrocyte cultures were freshly isolated from calf cartilage. The cells were plated at 2.5×10^6 per ml in 100×20 mm culture dishes and incubated in Ham's F12 medium containing 5% FBS overnight at 37° C. […] IL-1 (20 ng/ml) was then added to each plate and the plates incubated for an additional 18 hours. Total RNA was isolated by the acidified guanidine isothiocyanate method and subjected to electrophoresis on a denatured gel. Denatured RNA samples (15 μg) were analyzed by gel electrophoresis in a 1% denatured gel, transferred to a nylon membrane and hydridized with the ^32P-labeled collagenase cDNA probe. ^32P-labeled glyceraldehyde phosphate […] (GAPDH) cDNA as an internal standard to ensure roughly equal loading. The exposed films were scanned and quantitatively analyzed with ImageQuant.

The subject of experiment [6] is aggrecan mRNA. The experiment is described as follows: Expression of proteoglycan (aggrecan) in chondrocytes. Type of experiment: cell-based, calf. Particulars: all concentrations evaluated (10^−7 M to 10^−4 M). As to the method:
Primary chondrocyte cultures were freshly isolated from calf cartilage. The cells were plated at 2.5×10^6 per ml in 100×20 mm culture dishes and incubated in Ham's F12 medium containing 5% FBS overnight at 37° C. The cells were starved in serum-free medium overnight and then treated with anti-microtubule agents at various concentrations (10^−7 M, 10^−6 M, 10^−5 M and 10^−4 M) for 6 hours. […] Total RNA was isolated by the acidified guanidine isothiocyanate method and subjected to electrophoresis on a denatured gel. […] The exposed films were scanned and quantitatively analyzed with ImageQuant.

The test system of experiment [7] is NF-κB. Description: NF-κB activity (cell-based) reporter assay in NIH-3T3. Also noted: species or system murine. The settings on record: 6-hour and 24-hour treatments. As to the method: IL-1 and TNF were both identified as being proinflammatory cytokines that activate the transcription of genes driven by a transcription factor named NF-κB also involved in inflammatory processes. The inflammatory effect of IL-1 and TNF can therefore be indirectly assessed by means of a reporter gene assay (NF-κB) responding to IL-1 and TNF stimulation.
On day one, 5×10^4 NIH-3T3 (murine fibroblast), stably transfected with a NF-κB reporter construct (Luciferase, Promega Corp.), were plated per well (24-well plate). Once confluent (on day 3-4), cells were starved by replacing the complete medium with 1 ml of serum-free medium. Following a 24-hour starvation, cells were treated with various concentrations of anti-microtubule agents 6 hours prior to the addition of IL-1 (20 ng/ml) and TNF (20 ng/ml). Cells were exposed to IL-1 and TNF for 1 hour and 16 hours and NF-κB activity measured 24 hours later. On day five, the medium was discarded and the cells were rinsed once with PBS. Cells were then extracted for 15 minutes with 250 μl of lysis buffer (Promega Corp., Wisconsin). NF-κB transcriptional activity was assessed by adding 25 μl of luciferase substrate to a tube containing 2.5 μl of cell extract. The tube was immediately inserted in a luminometer (Turner Designs) and light emission measured for 10 seconds. The luciferase data were then normalized for protein concentration.
In general terms: In a reporter assay the amount or activity of a reporter protein is the signal.

Like-named read-outs stand apart in the source and are kept apart here.

As to `CC[C@@]1(O)C(=O)OCc2c1cc1n(c2=O)Cc2cc3ccccc3nc2-1` [camptothecin], in experiment [1], the EC50 result is on record as “femtomolar concentration range”. Further, the Inhibition/n result in experiment [2] (0.25%) is reported as “¾”; in experiment [2] (1%), “⅔”; in experiment [2] (5%) it was “⅘”. Besides, the intimal hyperplasia entry in experiment [3] is reported as “completely inhibited intimal hyperplasia”.

As a reminder, the IC50 is the point on the concentration scale where inhibition reaches its midpoint. Lower therefore signals higher potency. For `Nc1ncnc2c1ccn2[C@@H]1O[C@H](CO)[C@@H](O)[C@H]1O` [tubercidin, 7-deazaadenosine], the IC50 in experiment [4] is roughly 45 nM. In addition, in experiment [5], the “prevented IL-1-induced collagenase expression at concentrations as low as” value is 100 nM. For the same compound, the Inhibition/n result in experiment [2] (1%) was “⅓”; in experiment [2] (5%), “⅔”. The expression of aggrecan entry in experiment [6] was “did not affect the expression of aggrecan”. For the same compound, the “inhibitory effect on IL-1- and TNF-induced NF-κB activity” value in experiment [7] is “around 10 μM”.
